Source: patent US20230093099A1, “COMPOUNDS AND METHODS OF TREATING CANCERS” (CULLGEN (SHANGHAI), INC., priority 2019, published 2023)
pIC50: −log10 of the molar value.

test system: RS4;11 cells; assay: Cell viability assay (CellTiter-Glo) in RS4;11 cells; type: cell-based; details: Homo sapiens, 72 h; RS4;11 cells; cell viability, 3 days, CellTiter-Glo; read-out: IC50
Summary of the method: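 RS4;11 cells seeded at 5000 per well, exposed for 3 days to 8- or 12-point 3-fold serial dilutions. Viability read by CellTiter-Glo luminescence; IC50 fitted by nonlinear least-squares regression.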

| Compound | pIC50 |
| --- | --- |
| Cc1ncsc1-c1ccc(CNC(=O)[C@@H]2C[C@@H](O)CN2C(=O)[C@@H](NC(=O)CCC(=O)N2CCN(c3ccc(Nc4nc5cccc(-c6ccc(S(C)(=O)=O)cc6)n5n4)cc3)CC2)C(C)(C)C)cc1 [JA-069, (2S,4R)-1-((S)-3,3-Dimethyl-2-(4-(4-(4-((5-(4-(methylsulfonyl)phenyl)-[1,2,4]triazolo[1,5-a]pyridin-2-yl)amino)phenyl)piperazin-1-yl)-4-oxobutanamido)butanoyl)-4-hydroxy-N-(4-(4-methylthiazol-5-yl)benzyl)pyrrolidine-2-carboxamide] | < 5.00 |
| Cc1cnc(Nc2ccc(N3CCN(C(=O)CCOCCOCCOCCC(=O)N[C@H](C(=O)N4C[C@H](O)C[C@H]4C(=O)NCc4ccc(-c5scnc5C)cc4)C(C)(C)C)CC3)cc2)nc1Nc1cccc(S(=O)(=O)NC(C)(C)C)c1 [JA-034, (2S,4R)-1-((S)-2-(tert-Butyl)-16-(4-(4-((4-((3-(N-(tert-butyl)sulfamoyl)phenyl)amino)-5-methylpyrimidin-2-yl)amino)phenyl)piperazin-1-yl)-4,16-dioxo-7,10,13-trioxa-3-azahexadecanoyl)-4-hydroxy-N-(4-(4-methylthiazol-5-yl)benzyl)pyrrolidine-2-carboxamide] | < 5.00 |
| Cc1cnc(Nc2ccc(N3CCN(CC(=O)NCCCCCCCCCC(=O)N[C@H](C(=O)N4C[C@H](O)C[C@H]4C(=O)NCc4ccc(-c5scnc5C)cc4)C(C)(C)C)CC3)cc2)nc1Nc1cccc(S(=O)(=O)NC(C)(C)C)c1 [JA-105, (2S,4R)-1-((S)-2-(10-(2-(4-(4-((4-((3-(N-(tert-Butyl)sulfamoyl)phenyl)amino)-5-methylpyrimidin-2-yl)amino)phenyl)piperazin-1-yl)acetamido)decanamido)-3,3-dimethylbutanoyl)-4-hydroxy-N-(4-(4-methylthiazol-5-yl)benzyl)pyrrolidine-2-carboxamide] | < 5.00 |
| Cc1cnc(Nc2ccc(N3CCN(C(=O)CCCCCCCC(=O)N[C@H](C(=O)N4C[C@H](O)C[C@H]4C(=O)NCc4ccc(-c5scnc5C)cc4)C(C)(C)C)CC3)cc2)nc1Nc1cccc(S(=O)(=O)NC(C)(C)C)c1 [JA-027, (2S,4R)-1-((S)-2-(9-(4-(4-((4-((3-(N-(tert-Butyl)sulfamoyl)phenyl)amino)-5-methylpyrimidin-2-yl)amino)phenyl)piperazin-1-yl)-9-oxononanamido)-3,3-dimethylbutanoyl)-4-hydroxy-N-(4-(4-methylthiazol-5-yl)benzyl)pyrrolidine-2-carboxamide] | < 5.00 |
| Cc1ncsc1-c1ccc(CNC(=O)[C@@H]2C[C@@H](O)CN2C(=O)[C@@H](NC(=O)CCNC(=O)CN2CCN(c3ccc(Nc4nc5cccc(-c6ccc(S(C)(=O)=O)cc6)n5n4)cc3)CC2)C(C)(C)C)cc1 [JA-119, (2S,4R)-1-((S)-3,3-Dimethyl-2-(3-(2-(4-(4-((5-(4-(methylsulfonyl)phenyl)-[1,2,4]triazolo[1,5-a]pyridin-2-yl)amino)phenyl)piperazin-1-yl)acetamido)propanamido)butanoyl)-4-hydroxy-N-(4-(4-methylthiazol-5-yl)benzyl)pyrrolidine-2-carboxamide] | < 5.00 |
| O=C1CCC(N2C(=O)c3ccc(NCCOCCOCCOCCOCCC(=O)N4CCC(n5cc(-c6cnc7cccc(-c8cc(F)c(CN9CCOCC9)c(F)c8)c7n6)cn5)CC4)cc3C2=O)C(=O)N1 (centres unmarked) [JA-185, 5-((15-(4-(4-(8-(3,5-Difluoro-4-(morpholinomethyl)phenyl)quinoxalin-2-yl)-1H-pyrazol-1-yl)piperidin-1-yl)-15-oxo-3,6,9,12-tetraoxapentadecyl)amino)-2-(2,6-dioxopiperidin-3-yl)isoindoline-1,3-dione] | < 5.00 |
| CS(=O)(=O)c1ccc(-c2cccc3nc(Nc4ccc(N5CCN(C(=O)CCCCC#Cc6ccc7c(c6)C(=O)N(C6CCC(=O)NC6=O)C7)CC5)cc4)nn23)cc1 (centres unmarked) [JA-262, 3-(6-(7-(4-(4-((5-(4-(Methylsulfonyl)phenyl)-[1,2,4]triazolo[1,5-a]pyridin-2-yl)amino)phenyl)piperazin-1-yl)-7-oxohept-1-yn-1-yl)-1-oxoisoindolin-2-yl)piperidine-2,6-dione] | < 5.00 |

Continued, values first:

| pIC50 | Compound |
| --- | --- |
| < 6.30 | Cn1c(=O)n(C2CCC(=O)NC2=O)c2cccc(NCCCCCCC(=O)N3CCC(n4cc(-c5cnc6cccc(-c7cc(F)c(CN8CCOCC8)c(F)c7)c6n5)cn4)CC3)c21 (centres unmarked) [JA-283, 3-(4-((7-(4-(4-(8-(3,5-Difluoro-4-(morpholinomethyl)phenyl)quinoxalin-2-yl)-1H-pyrazol-1-yl)piperidin-1-yl)-7-oxoheptyl)amino)-3-methyl-2-oxo-2,3-dihydro-1H-benzo[d]imidazol-1-yl)piperidine-2,6-dione] |
| 5.12 | O=C1CCC(N2C(=O)c3cccc(NCCOCCOCCOCCOCCOCCC(=O)N4CCC(n5cc(-c6cnc7cccc(-c8cc(F)c(CN9CCOCC9)c(F)c8)c7n6)cn5)CC4)c3C2=O)C(=O)N1 (centres unmarked) [JA-043, 4-[2-[2-[2-[2-[2-[3-[4-[4-[8-[3,5-Difluoro-4-(morpholinomethyl)phenyl]quinoxalin-2-yl]pyrazol-1-yl]-1-piperidyl]-3-oxo-propoxy]ethoxy]ethoxy]ethoxy]ethoxy]ethylamino]-2-(2,6-dioxo-3-piperidyl)isoindoline-1,3-dione] |
| < 5.00 | Cc1ncsc1-c1ccc(CNC(=O)[C@@H]2C[C@@H](O)CN2C(=O)[C@@H](NC(=O)CCCCCCCCCCNC(=O)CN2CCN(c3ccc(Nc4nc5cccc(-c6ccc(S(C)(=O)=O)cc6)n5n4)cc3)CC2)C(C)(C)C)cc1 [JA-128, (2S,4R)-1-((S)-3,3-Dimethyl-2-(11-(2-(4-(4-((5-(4-(methylsulfonyl)phenyl)-[1,2,4]triazolo[1,5-a]pyridin-2-yl)amino)phenyl)piperazin-1-yl)acetamido)undecanamido)butanoyl)-4-hydroxy-N-(4-(4-methylthiazol-5-yl)benzyl)pyrrolidine-2-carboxamide] |
| 6.39 | CS(=O)(=O)c1ccc(-c2cccc3nc(Nc4ccc(N5CCN(C(=O)CCOCCOCCOCCNc6ccc7c(c6)C(=O)N(C6CCC(=O)NC6=O)C7=O)CC5)cc4)nn23)cc1 (centres unmarked) [JA-200, 2-(2,6-Dioxopiperidin-3-yl)-5-((2-(2-(2-(3-(4-(4-((5-(4-(methylsulfonyl)phenyl)-[1,2,4]triazolo[1,5-a]pyridin-2-yl)amino)phenyl)piperazin-1-yl)-3-oxopropoxy)ethoxy)ethoxy)ethyl)amino)isoindoline-1,3-dione] |
| 6.25 | Cc1cnc(Nc2ccc(N3CCN(CC(=O)NCCOCCOCCNc4cccc5c4C(=O)N(C4CCC(=O)NC4=O)C5=O)CC3)cc2)nc1Nc1cccc(S(=O)(=O)NC(C)(C)C)c1 (centres unmarked) [JA-086, 2-(4-(4-((4-((3-(N-(tert-Butyl)sulfamoyl)phenyl)amino)-5-methylpyrimidin-2-yl)amino)phenyl)piperazin-1-yl)-N-(2-(2-(2-((2-(2,6-dioxopiperidin-3-yl)-1,3-dioxoisoindolin-4-yl)amino)ethoxy)ethoxy)ethyl)acetamide] |
| 5.40 | CS(=O)(=O)c1ccc(-c2cccc3nc(Nc4ccc(N5CCN(C(=O)CCOCCOCCOCCNc6cccc7c6C(=O)N(C6CCC(=O)NC6=O)C7=O)CC5)cc4)nn23)cc1 (centres unmarked) [JA-085, 2-(2,6-Dioxo-piperidin-3-yl)-4-[2-(2-{2-[3-(4-{4-[5-(4-methanesulfonyl-phenyl)-[1,2,4]triazolo[1,5-a]pyridin-2-ylamino]-phenyl}-piperazin-1-yl)-3-oxo-propoxy]-ethoxy}-ethoxy)-ethylamino]-isoindole-1,3-dione] |
| 5.70 | Cc1cnc(Nc2ccc(N3CCN(C(=O)CCCCNc4ccc5c(c4)C(=O)N(C4CCC(=O)NC4=O)C5=O)CC3)cc2)nc1Nc1cccc(S(=O)(=O)NC(C)(C)C)c1 (centres unmarked) [JA-228, N-(tert-butyl)-3-((2-((4-(4-(5-((2-(2,6-dioxopiperidin-3-yl)-1,3-dioxoisoindolin-5-yl)amino)pentanoyl)piperazin-1-yl)phenyl)amino)-5-methylpyrimidin-4-yl)amino)benzenesulfonamide] |
| 5.35 | Cc1ncsc1-c1ccc(CNC(=O)[C@@H]2C[C@@H](O)CN2C(=O)[C@@H](NC(=O)CCCCCCCCCNC(=O)CN2CCC(n3cc(-c4cnc5cccc(-c6cc(F)c(CN7CCOCC7)c(F)c6)c5n4)cn3)CC2)C(C)(C)C)cc1 [JA-166, (2S,4R)-1-((S)-2-(10-(2-(4-(4-(8-(3,5-Difluoro-4-(morpholinomethyl)phenyl)quinoxalin-2-yl)-1H-pyrazol-1-yl)piperidin-1-yl)acetamido)decanamido)-3,3-dimethylbutanoyl)-4-hydroxy-N-(4-(4-methylthiazol-5-yl)benzyl)pyrrolidine-2-carboxamide] |
| 5.19 | Cc1ncsc1-c1ccc(CNC(=O)[C@@H]2C[C@@H](O)CN2C(=O)[C@@H](NC(=O)CCOCCC(=O)N2CCN(c3ccc(Nc4nc5cccc(-c6ccc(S(C)(=O)=O)cc6)n5n4)cc3)CC2)C(C)(C)C)cc1 [JA-082, 4-Hydroxy-1-(2-{3-[3-(4-{4-[5-(4-methanesulfonyl-phenyl)-[1,2,4]triazolo[1,5-a]pyridin-2-ylamino]-phenyl}-piperazin-1-yl)-3-oxo-propoxy]-propionylamino}-3,3-dimethyl-butyryl)-pyrrolidine-2-carboxylic acid 4-(4-methyl-thiazol-5-yl)-benzylamide] |
| 5.37 | Cc1ncsc1-c1ccc(CNC(=O)[C@@H]2C[C@@H](O)CN2C(=O)[C@@H](NC(=O)COCCOCCNC(=O)CN2CCN(c3ccc(Nc4nc5cccc(-c6ccc(S(C)(=O)=O)cc6)n5n4)cc3)CC2)C(C)(C)C)cc1 [JA-134, (2S,4R)-1-((S)-2-(tert-Butyl)-14-(4-(4-((5-(4-(methylsulfonyl)phenyl)-[1,2,4]triazolo[1,5-a]pyridin-2-yl)amino)phenyl)piperazin-1-yl)-4,13-dioxo-6,9-dioxa-3,12-diazatetradecanoyl)-4-hydroxy-N-(4-(4-methylthiazol-5-yl)benzyl)pyrrolidine-2-carboxamide] |
